# Measurements as given in patent publication US10336792B2, “Antimicrobial peptide dendrimers” (priority 2014, dated 2019).
# Tests used:
# [1] = test system: Pseudomonas aeruginosa (strain PA01); test: microbe, parasite or virus in culture; type: cell-based; conditions: LB medium, serial 2/3 dilution, 37 °C, 18-24 h
# Summary of the method: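 P. aeruginosa PAO1 grown overnight in LB, diluted to OD600 0.001 and mixed with ⅔-step peptide dilutions, then incubated at 37 °C for 18–24 h. After MTT staining, the lowest concentration with no visible growth was read by eye as the MIC.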
# [2] = 5(6)-Carboxyfluorescein leakage from lipid vesicles; conditions: 10 mM TRIS, 107 mM NaCl, pH 7.4; peptide added at 50 s
# Description: Preparation A thin lipid film was prepared by evaporating a solution of 25 mg Egg PC or Egg PG in 1 mL MeOH/CHCl3 1/1 on a rotary evaporator (rt) and then in vacuo overnight. The resulting film was hydrated with 1 mL buffer (50 mM CF, 10 mM TIRS, 10 mM NaCl, pH 7.4) for 30 min, subjected to freeze-thaw cycles (7×) and extrusion (15×) through a polycarbonate membrane (pore size 100 nm). Extravesicular components were removed by gel filtration (Sephadex G-50) with 10 mM TRIS, 107 mM NaCl, pH 7.4. Final conditions: ˜2.5 mM Egg PC or Egg PG; inside: 50 mM CF, 10 mM TIRS, 10 mM NaCl, pH 7.4; outside: 10 mM TRIS, 107 mM NaCl, pH 7.4.
# Experiment Egg PC or Egg PG stock solutions (37.5 μL) were diluted with a buffer (10 mM TRIS, 107 mM NaCl, pH 7.4) and placed in a thermostated fluorescence cuvette (25° C.) and gently stirred (total volume in the cuvette ˜3000 μL; final lipid concentration ˜31.25 μM). CF efflux was monitored at λem 517 nm (λex 492 nm) as a function of time after addition of 20 μL of peptide dendrimer in buffer (10 mM TRIS, 107 mM NaCl, pH 7.4) with final concentrations of 1, 5, 7.5, 10, 15, 20, 25, 30 μg/mL at t=50 s and 1.2% trition X-100 (30 μL, 0.012% final concentration) at t=300 s. Fluorescence intensities were normalized to fractional emission intensity I(t) using I(t)=(It−I0)/(I∞−I0) where I0 It at peptide dendrimer addition, I∞=It at saturation of lysis.
# Acinetobacter baumannii = type: cell-based; conditions: MH medium, 12-18 h
# Summary of the method: (§1)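 Broth microdilution in Müller-Hinton medium, two-fold serial dilutions from a starting 32–256 μg/mL, compounds dissolved in PBS; inoculum about 5×10^5 CFU, incubated 37° C ~18 h. MIC taken as lowest concentration with no visible growth by eye; polymyxin as reference.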
# [3] = test system: Staphylococcus aureus (COL, MRSA reference strain); type: cell-based; conditions: MH medium, 12-18 h
# Summary of the method: as §1
substance,measurement,setting,value
Polymyxin B [reference compound],MIC P. aeruginosa PAO1,[1],2 µg/mL
same,CF leakage from phosphatidylcholine LUVs,[2],behave in the same way
same,MIC A. baumannii ATCC19606,Acinetobacter baumannii,<1 µg/mL
same,MIC S. aureus COL,[3],64 µg/mL
